# Laboratory results: ChEMBL document CHEMBL4177585, “Discovery of berberine based derivatives as anti-influenza agent through blocking of neuraminidase” (Bioorg Med Chem, 2017)
# Active and inactive are the calls of the source. The rule behind the calls is not given here.
# What was measured:
# [1] = tested on: Influenza A virus; assay: Antiviral activity against Influenza A virus (A/Puerto Rico/8/1934(H1N1)) infected in MDCK cells assessed as reduction in virus-induced cytopathogenicity at 1 ug/ml treated before virus infection and measured after 48 hrs by SRB assay relative to untreated control; format: functional
# [2] = tested on: Influenza A virus; assay: Antiviral activity against Influenza A virus (A/Puerto Rico/8/1934(H1N1)) infected in MDCK cells assessed as reduction in virus-induced cytopathogenicity treated 12 hrs after virus infection and measured after 48 hrs by SRB assay; format: functional, organism-based
# [3] = tested on: Influenza A virus; assay: Antiviral activity against Influenza A virus (A/Puerto Rico/8/1934(H1N1)) infected in MDCK cells assessed as reduction in virus-induced cytopathogenicity treated 24 hrs after virus infection and measured after 48 hrs by SRB assay; format: functional, organism-based
# [4] = target: Neuraminidase (Influenza A virus (A/Puerto Rico/8/1934(H1N1))) (UniProt P03468); assay: Inhibition of neuraminidase in influenza A virus (A/Puerto Rico/8/1934(H1N1)) assessed as remaining enzyme activity at 1 ug/ml pre-incubated for 30 mins before NA-Star substrate addition for 30 mins by luminescence based assay
# Neuraminidase (Influenza A virus (A/Puerto Rico/8/1934(H1N1))), sequence (P03468 whole entry): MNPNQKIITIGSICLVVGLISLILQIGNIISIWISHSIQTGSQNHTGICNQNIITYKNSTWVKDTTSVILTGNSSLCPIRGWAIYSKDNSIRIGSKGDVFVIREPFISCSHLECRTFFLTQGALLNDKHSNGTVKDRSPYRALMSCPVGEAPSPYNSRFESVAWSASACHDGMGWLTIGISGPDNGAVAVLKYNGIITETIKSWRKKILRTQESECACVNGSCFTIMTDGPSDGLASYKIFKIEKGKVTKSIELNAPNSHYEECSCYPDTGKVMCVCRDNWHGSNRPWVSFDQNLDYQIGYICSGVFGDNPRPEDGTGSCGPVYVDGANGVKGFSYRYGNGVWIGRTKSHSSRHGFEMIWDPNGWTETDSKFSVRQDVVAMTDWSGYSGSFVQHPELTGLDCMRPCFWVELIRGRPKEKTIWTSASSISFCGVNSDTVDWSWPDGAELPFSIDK
# [5] = tested on: Influenza A virus; assay: Antiviral activity against Influenza A virus (A/Puerto Rico/8/1934(H1N1)) infected in MDCK cells assessed as reduction in virus-induced cytopathogenicity incubated for 48 hrs by SRB assay; format: functional, organism-based
# [6] = target: Neuraminidase (Influenza A virus (A/Puerto Rico/8/1934(H1N1))) (UniProt P03468); assay: Inhibition of neuraminidase in influenza A virus (A/Puerto Rico/8/1934(H1N1)) assessed as remaining enzyme activity at 0.1 ug/ml pre-incubated for 30 mins before NA-Star substrate addition for 30 mins by luminescence based assay
# [7] = tested on: Influenza A virus; assay: Antiviral activity against Influenza A virus (A/Puerto Rico/8/1934(H1N1)) infected in MDCK cells assessed as reduction in virus-induced cytopathogenicity treated 2 hrs before virus infection and measured after 48 hrs by SRB assay; format: functional, organism-based
# [8] = tested on: Influenza A virus; assay: Antiviral activity against Influenza A virus (A/Puerto Rico/8/1934(H1N1)) infected in MDCK cells assessed as reduction in virus-induced cytopathogenicity treated immediately after virus infection and measured after 48 hrs by SRB assay; format: functional, organism-based
# [9] = tested on: Influenza B virus; assay: Antiviral activity against Influenza B virus (B/Lee/40) infected in MDCK cells assessed as reduction in virus-induced cytopathogenicity incubated for 48 hrs by SRB assay; format: functional, organism-based; settings: B/Lee/1940, MDCK
# [10] = target: Neuraminidase (Influenza A virus (A/Puerto Rico/8/1934(H1N1))) (UniProt P03468); assay: Inhibition of neuraminidase in influenza A virus (A/Puerto Rico/8/1934(H1N1)) assessed as remaining enzyme activity at 10 ug/ml pre-incubated for 30 mins before NA-Star substrate addition for 30 mins by luminescence based assay
# [11] = tested on: Influenza A virus; assay: Antiviral activity against Influenza A virus (A/Puerto Rico/8/1934(H1N1)) infected in MDCK cells assessed as reduction in virus-induced cytopathogenicity treated 1 hr after virus infection and measured after 48 hrs by SRB assay; format: functional, organism-based
# [12] = tested on: Influenza A virus; assay: Antiviral activity against Influenza A virus (A/Puerto Rico/8/1934(H1N1)) infected in MDCK cells assessed as reduction in virus-induced cytopathogenicity at 1 ug/ml pre-incubated for 1 hr with virus before virus infection of cells and measured after 48 hrs by SRB assay; format: functional, organism-based
# [13] = tested on: Influenza A virus; assay: Antiviral activity against Influenza A virus (A/Puerto Rico/8/1934(H1N1)) infected in MDCK cells assessed as reduction in virus-induced cytopathogenicity treated 1 hr before virus infection and measured after 48 hrs by SRB assay; format: functional, organism-based
# [14] = tested on: Influenza A virus; assay: Antiviral activity against Influenza A virus (A/Puerto Rico/8/1934(H1N1)) infected in MDCK cells assessed as reduction in virus-induced cytopathogenicity treated 6 hrs before virus infection and measured after 48 hrs by SRB assay; format: functional, organism-based
# [15] = tested on: Influenza A virus; assay: Antiviral activity against Influenza A virus (A/Puerto Rico/8/1934(H1N1)) infected in MDCK cells assessed as reduction in virus-induced cytopathogenicity treated 7 hrs after virus infection and measured after 48 hrs by SRB assay; format: functional, organism-based
# [16] = tested on: Influenza A virus; assay: Antiviral activity against Influenza A virus (A/Victoria/3/1975(H3N2)) infected in MDCK cells assessed as reduction in virus-induced cytopathogenicity incubated for 48 hrs by SRB assay; format: functional, organism-based
# [17] = tested on: Influenza A virus; assay: Antiviral activity against Influenza A virus (A/Puerto Rico/8/1934(H1N1)) infected in MDCK cells assessed as reduction in virus-induced cytopathogenicity treated 4 hrs after virus infection and measured after 48 hrs by SRB assay; format: functional, organism-based
# [18] = tested on: Influenza A virus; assay: Antiviral activity against Influenza A virus (A/Puerto Rico/8/1934(H1N1)) infected in MDCK cells assessed as reduction in virus-induced cytopathogenicity treated 2 hrs after virus infection and measured after 48 hrs by SRB assay; format: functional, organism-based
# [19] = tested on: Influenza B virus; assay: Antiviral activity against Influenza B virus (B/Maryland/1/59) infected in MDCK cells assessed as reduction in virus-induced cytopathogenicity incubated for 48 hrs by SRB assay; format: functional, organism-based
# [20] = target: Neuraminidase (Influenza A virus (A/Puerto Rico/8/1934(H1N1)), UniProt P03468); assay: Inhibition of neuraminidase in influenza A virus (A/Puerto Rico/8/1934(H1N1)) pre-incubated for 30 mins before NA-Star substrate addition for 30 mins by luminescence based assay
# Neuraminidase (Influenza A virus (A/Puerto Rico/8/1934(H1N1)), UniProt P03468), sequence (P03468 whole entry): as above
# [21] = Cytotoxicity against MDCK cells incubated for 48 hrs assessed as reduction in cell viability by SRB assay; format: cell-based, Canis lupus familiaris; settings: dog
structure (smiles),measurement,setting,value
CCOC(=O)C1=C[C@@H](OC(CC)CC)[C@H](NC(C)=O)[C@@H](N)C1 [OSELTAMIVIR],inhibition at 1 µg/mL,[1],25.7%
same,IC50,[2],84.3 µg/mL
same,IC50,[3],> 100 µg/mL
same,Activity,[4],32.9%
same,IC50,[5],3.19 µg/mL
same,Activity,[6],41.9%
same,IC50,[7],71.5 µg/mL
same,IC50,[8],4.12 µg/mL
same,IC50,[9],41.9 µg/mL
same,Activity,[10],22.6%
same,IC50,[11],6.13 µg/mL
same,Activity,[12],Active
same,IC50,[13],69.8 µg/mL
same,IC50,[14],> 100 µg/mL
same,IC50,[15],12.8 µg/mL
same,IC50,[16],12.1 µg/mL
same,IC50,[17],7.39 µg/mL
same,IC50,[18],6.05 µg/mL
same,IC50,[19],33.2 µg/mL
COc1cc(CN2CCN(c3ccc(F)cc3)CC2)c2cc3[n+](cc2c1O)CCc1cc2c(cc1-3)OCO2.[Cl-],inhibition at 1 µg/mL,[1],48.3%
same,IC50,[2],23.2 µg/mL
same,IC50,[3],> 100 µg/mL
same,Activity,[4],23.4%
same,IC50,[5],0.87 µg/mL
same,Activity,[6],43.1%
same,IC50,[7],21.3 µg/mL
same,IC50,[8],0.89 µg/mL
same,IC50,[9],4.12 µg/mL
same,Activity,[10],16.6%
same,IC50,[11],1.22 µg/mL
same,Activity,[12],Active
same,IC50,[13],3.4 µg/mL
same,IC50,[14],52.4 µg/mL
same,IC50,[15],9.38 µg/mL
same,Ki,[20],0.48 µM
same,IC50,[16],1.15 µg/mL
same,IC50,[17],1.75 µg/mL
same,IC50,[18],1.19 µg/mL
same,IC50,[19],3.12 µg/mL
same,CC50 at 48 h,[21],72.6 µg/mL
COc1cc(CN2CCN(c3cccc(Cl)c3Cl)CC2)c2cc3[n+](cc2c1O)CCc1cc2c(cc1-3)OCO2.[Cl-],IC50,[5],8.37 µg/mL
same,Ki,[20],0.35 µM
same,CC50 at 48 h,[21],63.2 µg/mL
COc1cc(CN2CCOCC2)c2cc3[n+](cc2c1O)CCc1cc2c(cc1-3)OCO2.[Cl-],IC50,[5],44.3 µg/mL
same,Ki,[20],0.48 µM
same,CC50 at 48 h,[21],126 µg/mL
COc1cc(CN2CCN(c3ccc4ccccc4c3)CC2)c2cc3[n+](cc2c1O)CCc1cc2c(cc1-3)OCO2.[Cl-],IC50,[5],20 µg/mL
same,Ki,[20],0.24 µM
same,CC50 at 48 h,[21],150 µg/mL
COc1cc(Cn2c3ccccc3c3ccccc32)c2cc3[n+](cc2c1O)CCc1cc2c(cc1-3)OCO2.[Cl-],IC50,[5],9.79 µg/mL
same,Ki,[20],0.49 µM
same,CC50 at 48 h,[21],62.6 µg/mL
COc1cc(CN2CCN(c3ccc(C(F)(F)F)cc3)CC2)c2cc3[n+](cc2c1O)CCc1cc2c(cc1-3)OCO2.[Cl-],IC50,[5],10 µg/mL
same,Ki,[20],1.59 µM
COc1cc(CN2CCN(c3ncccn3)CC2)c2cc3[n+](cc2c1O)CCc1cc2c(cc1-3)OCO2.[Cl-],IC50,[5],2.65 µg/mL
same,Ki,[20],0.07 µM
same,CC50 at 48 h,[21],223 µg/mL
COc1cc(CN2CCN(C(=O)c3ccccc3)CC2)c2cc3[n+](cc2c1O)CCc1cc2c(cc1-3)OCO2.[Cl-],IC50,[5],> 50 µg/mL
same,Ki,[20],0.58 µM
same,CC50 at 48 h,[21],424 µg/mL
COc1ccc(N2CCN(Cc3cc(OC)c(O)c4c[n+]5c(cc34)-c3cc4c(cc3CC5)OCO4)CC2)c(OC)c1.[Cl-],IC50,[5],47.8 µg/mL
same,Ki,[20],1.59 µM
COc1cc(CN2CCCCC2)c2cc3[n+](cc2c1O)CCc1cc2c(cc1-3)OCO2.[Cl-],IC50,[5],> 50 µg/mL
same,Ki,[20],0.68 µM
same,CC50 at 48 h,[21],1640 µg/mL
COc1cc(CN2CCN(c3ccc(Cl)cc3)CC2)c2cc3[n+](cc2c1O)CCc1cc2c(cc1-3)OCO2.[Cl-],IC50,[5],45.3 µg/mL
same,Ki,[20],0.96 µM
same,CC50 at 48 h,[21],480 µg/mL
